The values that follow come from patent US20100137313A1 (ASTRAZENECA AB, priority 2008, published 2010).

Each structure is given as a SMILES string.

Sequence of S. pneumoniae Topoisomerase IV ATPase (ParE) (Q59961 whole entry): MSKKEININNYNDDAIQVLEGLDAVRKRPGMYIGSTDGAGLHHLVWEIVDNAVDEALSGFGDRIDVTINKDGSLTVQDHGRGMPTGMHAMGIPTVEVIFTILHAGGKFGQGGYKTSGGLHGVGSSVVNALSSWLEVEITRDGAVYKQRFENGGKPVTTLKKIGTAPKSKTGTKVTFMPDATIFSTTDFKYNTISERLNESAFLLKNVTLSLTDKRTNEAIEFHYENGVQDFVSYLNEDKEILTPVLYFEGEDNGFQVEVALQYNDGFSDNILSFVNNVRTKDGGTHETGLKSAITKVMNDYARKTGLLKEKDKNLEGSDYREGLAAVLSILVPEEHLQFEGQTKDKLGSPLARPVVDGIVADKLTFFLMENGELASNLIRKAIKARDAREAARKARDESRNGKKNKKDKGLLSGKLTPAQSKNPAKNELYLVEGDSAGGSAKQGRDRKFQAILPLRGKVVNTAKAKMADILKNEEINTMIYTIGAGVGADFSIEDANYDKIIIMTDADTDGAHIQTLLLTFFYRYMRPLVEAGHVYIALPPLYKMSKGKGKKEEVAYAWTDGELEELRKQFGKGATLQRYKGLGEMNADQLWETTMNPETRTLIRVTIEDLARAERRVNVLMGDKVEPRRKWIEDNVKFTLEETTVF

This experiment addresses S. pneumoniae Topoisomerase IV ATPase (ParE) (Streptococcus pneumoniae serotype 4, UniProt Q59961). Description: S. pneumoniae Topoisomerase IV ATPase inhibition. The settings on record: values marked * are an average of two or more data points, read-out: % Inh (13 μM) of S. pneumoniae Topoisomerase IV ATPase. Format: biochemical. In a few lines: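 Phosphate release by ParE ATPase from S. pneumoniae read colorimetrically (malachite green, 650 nm), enzyme 1.25 nM, ATP 160 μM, salmon sperm DNA present, buffer 20 mM Tris pH 8.0 with 8 mM MgCl2. IC50 over 10 compound concentrations, EDTA (20 μM) and DMSO controls defining inhibition range.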
In the case of `COc1ncc(-c2cnc(Nc3ccc(F)c(Cl)c3)nc2-n2ccc(C(F)(F)F)n2)cc1C(=O)NS(C)(=O)=O` [Example 1024, 5-(2-(3-Chloro-4-fluorophenylamino)-4-(3-(trifluoromethyl)-1H-pyrazol-1-yl)pyrimidin-5-yl)-2-methoxy-N-(methylsulfonyl)nicotinamide], the inhibition at 13 µM amounted to 100%. On to `COc1ncc(-c2cnc(Nc3ccc(F)c(Cl)c3)nc2-n2nc(C(F)(F)F)cc2C)cc1C(=O)NS(C)(=O)=O` [Example 1025, 5-(2-(3-Chloro-4-fluorophenylamino)-4-(5-methyl-3-(trifluoromethyl)-1H-pyrazol-1-yl)pyrimidin-5-yl)-2-methoxy-N-(methylsulfonyl)nicotinamide], for which the inhibition at 13 µM was 98%. The same measure for `COc1cc(Nc2ncc(-c3cc(C(=O)NS(C)(=O)=O)c(=O)n(C)c3)c(-n3nc(C(F)(F)F)cc3C)n2)cc(OC)c1` [Example 1026]: 98%. As for `COc1ncc(-c2cnc(Nc3ccc(F)c(Cl)c3)nc2-n2ccc(C(F)(F)F)n2)cc1CO` [Example 1027, (5-(2-(3-chloro-4-fluorophenylamino)-4-(3-(trifluoromethyl)-1H-pyrazol-1-yl)pryimidin-5-yl)-2-methoxypyridin-3yl)methanol], the inhibition at 13 µM was found to be 94%.

On to `COc1ncc(-c2cnc(Nc3ccc(F)c(Cl)c3)nc2-n2ccc(C(F)(F)F)n2)cc1/C=C/C(=O)O` [Example 1030, (E)-3-(5-(2-(3-chloro-4-fluorophenylamino)-4-(3-(trifluoromethyl)-1H-pyrazol-1-yl)pyrimidin-5-yl)-2-methoxypyridin-3-yl)acrylic acid], for which the inhibition at 13 µM was found to be 100%.

For the compound `CCN(CC)S(=O)(=O)c1cncc(-c2cnc(Nc3ccc(F)c(Cl)c3)nc2-n2ccc(C(F)(F)F)n2)c1` [Example 1033, 5-(2-(3-Chloro-4-fluorophenylamino)-4-(3-(trifluoromethyl)-1H-pyrazol-1-yl)pyrimidin-5-yl)-N,N-diethylpyridine-3-sulfonamide], the inhibition at 13 µM turned out to be 20%.

On to `CCN(CC)S(=O)(=O)c1cncc(-c2cnc(Nc3ccc(F)c(Cl)c3)nc2-n2nc(C(F)(F)F)cc2C)c1` [Example 1034], for which the inhibition at 13 µM turned out to be 96%. Take `O=S(=O)(c1cncc(-c2cnc(Nc3ccc(F)c(Cl)c3)nc2-n2ccc(C(F)(F)F)n2)c1)N1CCOCC1` [Example 1035]: the inhibition at 13 µM was 51%.

For `Cc1cc(C(F)(F)F)nn1-c1nc(Nc2ccc(F)c(Cl)c2)ncc1-c1cncc(S(=O)(=O)N2CCOCC2)c1` [Example 1036], the inhibition at 13 µM was found to be 100%. As for `COC(=O)CC(=O)c1cncc(-c2cnc(Nc3ccc(F)c(Cl)c3)nc2N2CCOCC2)c1` [Example 1039, Methyl 3-(5-(2-(3-chloro-4-fluorophenylamino)-4-morpholinopyrimidin-5-yl)pyridin-3-yl)-3-oxopropanoate], the inhibition at 13 µM was 90%. Take `COCCCNc1nc(Nc2ccc(F)c(Cl)c2)ncc1-c1cncc(C(=O)CC(=O)OC)c1` [Example 1040, Methyl 3-(5-(2-(3-chloro-4-fluorophenylamino)-4-(3-methoxypropylamino)pyrimidin-5-yl)pyridin-3-yl)-3-oxopropanoate]: the inhibition at 13 µM came to 86%. As to `COC(=O)CC(=O)c1cncc(-c2cnc(Nc3ccc(F)c(Cl)c3)nc2-n2nc(C(F)(F)F)cc2C)c1` [Example 1041, Methyl 3-(5-(2-(3-chloro-4-fluorophenylamino)-4-(5-methyl-3-(trifluoromethyl)-1H-pyrazol-1-yl)pyrimidin-5-yl)pyridin-3-yl)-3-oxopropanoate], the inhibition at 13 µM was determined as 100%. On to `Cc1cc(C(F)(F)F)nn1-c1nc(Nc2ccc(F)c(Cl)c2)ncc1-c1ccc2c(c1)C(=O)NC2=O` [Example 1042, 5-(2-(3-Chloro-4-fluorophenylamino)-4-(5-methyl-3-(trifluoromethyl)-1H-pyrazol-1-yl)pyrimidin-5-yl)isoindoline-1,3-dione], for which the inhibition at 13 µM was determined as 49%. On to `Cn1cc(-c2cnc(Nc3ccc(F)c(Cl)c3)nc2-n2ccc(C(F)(F)F)n2)cc(C(=O)NS(C)(=O)=O)c1=O` [Example 1048, 5-(2-(3-Chloro-4-fluorophenylamino)-4-(3-(trifluoromethyl)-1H-pyrazol-1-yl)pyrimidin-5-yl)-1-methyl-N-(methylsulfonyl)-2-oxo-1,2-dihydropyridine-3-carboxamide], for which the inhibition at 13 µM came out at 100%. For `Cc1cc(C(F)(F)F)nn1-c1nc(Nc2ccc(F)c(Cl)c2)ncc1-c1cc(C(=O)NS(C)(=O)=O)c(=O)n(C)c1` [Example 1049, 5-(2-(3-Chloro-4-fluorophenylamino)-4-(5-methyl-3-(trifluoromethyl)-1H-pyrazol-1-yl)pyrimidin-5-yl)-1-methyl-N-(methylsulfonyl)-2-oxo-1,2-dihydropyridine-3-carboxamide], the inhibition at 13 µM was determined as 99%. To `COCCCNc1nc(Nc2ccc(F)c(Cl)c2)ncc1-c1ccc2cc(C(=O)OC)[nH]c2c1` [Example 1051, methyl 6-(2-(3-chloro-4-fluorophenylamino)-4-(3-methoxypropylamino)pyrimidin-5-yl)-1H-indole-2-carboxylate] belongs 0%. The same measure for `CCOC(=O)c1cc2cc(-c3cnc(Nc4ccc(F)c(Cl)c4)nc3NCCCOC)ccc2[nH]1` [Example 1052, Ethyl 5-(2-(3-chloro-4-fluorophenylamino)-4-(3-methoxyproylamino)pyrimidin-5-yl)-1H-indole-2-carboxylate]: 0%. On to `COC(=O)c1cc2ccc(-c3cnc(Nc4ccc(F)c(Cl)c4)nc3N3CCOCC3)cc2[nH]1` [Example 1053, Methyl 6-(2-(3-chloro-4-fluorophenylamino)-4-morpholinopyrimidin-5-yl)-1H-indole-2-carboxylate], for which the inhibition at 13 µM was determined as 0%. Take `CCOC(=O)c1cc2cc(-c3cnc(Nc4ccc(F)c(Cl)c4)nc3N3CCOCC3)ccc2[nH]1` [Example 1054, Ethyl 5-(2-(3-chloro-4-fluorophenylamino)-4-morpholinopyrimidin-5-yl)-1H-indole-2-carboxylate]: the inhibition at 13 µM came out at 0%. Consider `CCC1COC(C)CN1c1nc(Nc2ccc(F)c(Cl)c2)ncc1-c1cccc(/C=C/C(=O)O)c1` (stereo not shown) [Example 1056, (E)-3-(3-(2-(3-chloro-4-fluorophenylamino)-4-(5-ethyl-2-methylmorpholino)pyrimidin-5-yl)phenyl)acrylic acid], for which the inhibition at 13 µM amounted to 85%.

Consider `COCCn1cc(C(=O)O)c(=O)c2cc(-c3cnc(Nc4ccc(F)c(Cl)c4)nc3NCCCN(C)C)ccc21` [Example 1057, 6-(2-(3-Chloro-4-fluorophenylamino)-4-(3-(dimethylamino)propylamino)pyrimidin-5-yl)-1-(2-methoxyethyl)-4-oxo-1,4-dihydroquinoline-3-carboxylic acid], for which the inhibition at 13 µM came out at 83%. `CCC1COC(C)CN1c1nc(Nc2ccc(F)c(Cl)c2)ncc1-c1cncc(C(=O)O)c1` (stereo not shown) [Example 1058, 5-(2-(3-Chloro-4-fluorophenylamino)-4-(5-ethyl-2-methylmorpholino)pyrimidin-5-yl)nicotinic acid]: the inhibition at 13 µM came to 87%.

On to `O=C(O)/C=C/c1cccc(-c2cnc(Nc3ccc(F)c(Cl)c3)nc2N2CCOC(CO)C2)c1` (stereo not shown) [Example 1059], for which the inhibition at 13 µM came out at 85%.

Turning to `O=C(O)c1cncc(-c2cnc(Nc3ccc(F)c(Cl)c3)nc2N2CCOC(CO)C2)c1` (stereo not shown) [Example 1060], the inhibition at 13 µM amounted to 87%. For the compound `COCCCNc1nc(Nc2ccc(F)c(Cl)c2)ncc1-c1ccc2cc(C(=O)O)[nH]c2c1` [Example 1061, 6-(2-(3-chloro-4-fluorophenylamino)-4-(3-methoxypropylamino)pyrimidin-5-yl)-1H-indole-2-carboxylic acid], the inhibition at 13 µM turned out to be 92%. To `COCCCNc1nc(Nc2ccc(F)c(Cl)c2)ncc1-c1ccc2[nH]c(C(=O)O)cc2c1` [Example 1062, 5-(2-(3-chloro-4-fluorophenylamino)-4-(3-methoxypropylamino)pyrimidin-5-yl)-1H-indole-2-carboxylic acid] belongs 91%; to `O=C(O)c1cc2ccc(-c3cnc(Nc4ccc(F)c(Cl)c4)nc3N3CCOCC3)cc2[nH]1` [Example 1063, 6-(2-(3-Chloro-4-fluorophenylamino)-4-morpholinopyrimidin-5-yl)-1H-indole-2-carboxylic acid], 94%.

With `O=C(O)c1cc2cc(-c3cnc(Nc4ccc(F)c(Cl)c4)nc3N3CCOCC3)ccc2[nH]1` [Example 1064, 5-(2-(3-Chloro-4-fluorophenylamino)-4-morpholinopyrimidin-5-yl)-1H-indole-2-carboxylic acid], the inhibition at 13 µM was 100%.

Turning to `COc1ncc(-c2cnc(Nc3ccc(F)c(Cl)c3)nc2-n2ccc(C(F)(F)F)n2)cc1C(=O)O` [Example 1066, 5-(2-(3-chloro-4-fluorophenylamino)-4-(3-(trifluoromethyl)-1H-pyrazol-1-yl)pyrimidin-5-yl)-2-methoxynicotinic acid], the inhibition at 13 µM worked out at 100%. The same measure for `COc1ncc(-c2cnc(Nc3ccc(F)c(Cl)c3)nc2-n2nc(C(F)(F)F)cc2C)cc1C(=O)O` [Example 1067, 5-(2-(3-chloro-4-fluorophenylamino)-4-(5-methyl-3-(trifluoromethyl)-1H-pyrazol-1-yl)pyrimidin-5-yl)-2-methoxynicotinic acid]: 98%. The same measure for `O=C(O)c1cc(-c2cnc(Nc3ccc(F)c(Cl)c3)nc2-n2ccc(C(F)(F)F)n2)ccn1` [Example 1068, 4-(2-(3-Chloro-4-fluorophenylamino)-4-(3-(trifluoromethyl)-1H-pyrazol-1-yl)pyrimidin-5-yl)picolinic acid]: 100%.
